Measurements taken from patent publication US20110251220A1, “Pharmaceutical compositions comprising gamma secretase modulators” (priority 2008, published 2011).

What was measured:
Format in all cases: cell-based, human
U266 cells [1] = assay: Proliferation assay (CellTiter-Glo), U266 (Notch1 negative control); conditions: U266 (lacking Notch1), 48 h treatment
Method: (§1) Human MM cell lines used were as follows: NCI-H929, OPM-2, LP-1, RPMI-8226, U266 (DSMZ, Braunschweig, Germany). Cell lines were cultured in RPMI 1640 medium (Biochrom, Berlin, Germany) supplemented with 10% heat-inactivated fetal calf serum (FCS, Gibco, Karlsruhe, Germany), 1 mM sodium pyruvate and 100 units/ml penicillin and 100 μg/ml streptomycin (Gibco). Human osteoclasts were obtained as described in the reference of Zavrski I, Krebbel H, Wildemann B, et al. Proteasome inhibitors abrogate osteoclast differentiation and osteoclast function. Biochem Biophys Res Commun. 2005; 333:200-205. Briefly, peripheral blood mononuclear cells (PBMC) were isolated from whole blood of healthy volunteers, using a Ficoll-Hypaque density gradient. The adherent fraction of the isolated mononuclear cells was cultured for 21 days in MEM medium (Sigma-Aldrich Chemie, Taufkirchen, Germany) supplemented with 10% FCS, 100 U/ml penicillin, 100 μg/ml streptomycin, 50 ng/ml M-CSF, and 25 ng/ml RANKL (osteoclastogenic medium), before coculture experiments and treatment with the inventive compounds started. […]
For assaying proliferation/viability of cells CellTiter-Glo Luminescent Cell Viability Assay (Promega, Mannheim, Germany) was used. In this assay the number of viable cells at a given time point is determined by quantification of ATP present, which serves as a measure of metabolically active cells. […]

MM cells = assay: Cell cycle analysis (propidium iodide staining), MM cells; conditions: after 48 h and 72 h
Method: (§2) The compound according to example 1, hereinafter referred to as GSI15, (compound RH02015SC, Maybridge, Acros Organics, Geel, Belgium) was freshly dissolved as 26 mM stock solution in Dimethylsulfoxide (DMSO). Multiple myeloma therapeutics used were melphalan (marketed as Alkeran®, GlaxoSmithKline, Munich, Germany) and bortezomib (marketed as Velcade®, Janssen-Cilag, Neuss, Germany). Melphalan was freshly dissolved at 10 mg/ml in 0.9% NaCl-solution. Bortezomib was freshly dissolved at 100 ng/ml in 0.9% NaCl solution. Gamma Secretase Inhibitor (GSI) treatment for apoptosis assessment by AnnexinV/PI staining, cell cycle analysis and coculture experiments was performed in 6-well plates. GSI15 stock solution was added directly to the cell suspension. GSI treatment for assaying proliferation was performed in 96-well plates. […]
(§3) For cell cycle analysis 2×10^5 cells were spun down, medium was aspirated and cells washed with PBS. […] After 10 minutes incubation in the dark at room temperature, cells were analyzed by flow cytometry. The amount of apoptotic cells was determined by AnnexinV/propidium iodide staining using Human AnnexinV-FITC Kit (Bender Medsystems, Vienna, Austria), according to manufacturer's protocol. […] Cells were then spun down again, resuspended in binding buffer containing PI and analyzed by flow cytometry.

U266 cells [2] = assay: Apoptosis by AnnexinV-FITC/PI staining, U266
Method: as §2, §3

[3] = tested on: OPM-2 cocultured with OCL; assay: OPM-2/OCL coculture, apoptosis of OPM-2 by AnnexinV-FITC/PI staining; conditions: 60 μM GSI15, 48 h
Method: as §1, with “gradient.” for “gradient. The adherent fraction of the isolated mononuclear cells was cultured for 21 days in MEM medium (Sigma-Aldrich Chemie, Taufkirchen, Germany) supplemented with 10% FCS, 100 U/ml penicillin, 100 μg/ml streptomycin, 50 ng/ml M-CSF, and 25 ng/ml RANKL (osteoclastogenic medium), before coculture experiments and treatment with the inventive compounds started.”
as §3

Hes-1 = Hes-1 mRNA expression in OCL (quantitative RT-PCR); conditions: mono- and coculture with OPM-2
Method: In osteoclast coculture experiments, OPM-2 cells (1×10^6 cells) were added to osteoclasts in 60 mm dishes (4×10^6 cells per dish) in 3 ml MEM medium supplemented with 10% FCS, 100 U/ml penicillin, 100 μg/ml streptomycin. GSI15 (30 μM, 60 μM) or DMSO (equivalent to 60 μM) as solvent control were added to each well (daily treatment). After 48 h, 0.5 ml OPM-2 cell suspension were harvested per well and subjected to AnnexinV-FITC/PI staining. Remaining OPM-2 cells were harvested and lysed for either RNA or protein preparation. The monolayer of osteoclasts was washed twice with ice-cold PBS and then lysed for either RNA or protein preparation directly on the plate.
Quantitative real-time reverse transcription-PCR (RT-PCR) analysis was performed using the following primer/probe sets: human Hes-1 (forward—[…], reverse—[…], probe—FAM-[…]-TAMRA) human TRAP5 (forward—[…], reverse—[…], probe FAM-[…]-TAMRA), human beta2-microglobulin (forward—ccc cca ctg aaa aag atg ag, reverse—atc caa tcc aaa tgc ggc, probe—FAM-CCTGCCGTGTGAACCATGTGACTTT-TAMRA) served as normalizer. […] For the RT-PCR reaction SuperScript™ III Platinum® One-Step Quantitative RT-PCR System (Invitrogen, Karlsruhe, Germany) was used. 50 ng total RNA were used per reaction, each RNA sample was analyzed in three replicates. […] Normalized mRNA expression data were then calculated as values relative to the respective untreated sample.

CC(C)c1ccc(S(=O)(=O)Nc2cccnc2Oc2ccc(Cl)cc2)cc1 [Example 1, N-(2-(4-chlorophenoxy)pyridin-3-yl)-4-isopropylbenzenesulfonamide]
proliferation (U266 cells [1]): almost not affected
distribution of G1-, S- and G2-phase (MM cells): remained unaltered
AnnexinV-FITC/PI staining (U266 cells [2]): remained unaffected
overall amount of apoptotic cells [3]: 83%
Hes-1 mRNA expression (Hes-1): diminished Hes-1 mRNA expression
